Source: patent US20240254119A1 (THIRD HARMONIC BIO, INC., priority 2022, published 2024)
Values belong to the molecule of their own block, whether it stands above or below them.

Columns and labels:
CSF-1R = molecular target: T1, CSF-1R (Homo sapiens, UniProt P07333); assay: HTRF biochemical assay, CSF-1R; conditions: Table 4
T1 construct: purchased Invitrogen PV3249 (lot 662393N)
Summary of the method: (§1)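 Kinase phosphorylation of a FAM-labelled peptide substrate, with ATP and Mn^2+ cofactors, run for 3 h at 25 °C, with optional enzyme–compound pre-incubation. Reactions were quenched with EDTA, and phosphopeptide was detected by anti-phosphotyrosine antibody HTRF.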

PDGFRα = molecular target: T2, PDGFRα (Homo sapiens, UniProt P16234); assay: HTRF biochemical assay, PDGFRα; conditions: Table 4, read-out: PDFGRα Biochemical IC50 avg
T2 construct: purchased Millipore 14-467 (lot 26321_ACTI)
T2 sequence (P16234 24-1089): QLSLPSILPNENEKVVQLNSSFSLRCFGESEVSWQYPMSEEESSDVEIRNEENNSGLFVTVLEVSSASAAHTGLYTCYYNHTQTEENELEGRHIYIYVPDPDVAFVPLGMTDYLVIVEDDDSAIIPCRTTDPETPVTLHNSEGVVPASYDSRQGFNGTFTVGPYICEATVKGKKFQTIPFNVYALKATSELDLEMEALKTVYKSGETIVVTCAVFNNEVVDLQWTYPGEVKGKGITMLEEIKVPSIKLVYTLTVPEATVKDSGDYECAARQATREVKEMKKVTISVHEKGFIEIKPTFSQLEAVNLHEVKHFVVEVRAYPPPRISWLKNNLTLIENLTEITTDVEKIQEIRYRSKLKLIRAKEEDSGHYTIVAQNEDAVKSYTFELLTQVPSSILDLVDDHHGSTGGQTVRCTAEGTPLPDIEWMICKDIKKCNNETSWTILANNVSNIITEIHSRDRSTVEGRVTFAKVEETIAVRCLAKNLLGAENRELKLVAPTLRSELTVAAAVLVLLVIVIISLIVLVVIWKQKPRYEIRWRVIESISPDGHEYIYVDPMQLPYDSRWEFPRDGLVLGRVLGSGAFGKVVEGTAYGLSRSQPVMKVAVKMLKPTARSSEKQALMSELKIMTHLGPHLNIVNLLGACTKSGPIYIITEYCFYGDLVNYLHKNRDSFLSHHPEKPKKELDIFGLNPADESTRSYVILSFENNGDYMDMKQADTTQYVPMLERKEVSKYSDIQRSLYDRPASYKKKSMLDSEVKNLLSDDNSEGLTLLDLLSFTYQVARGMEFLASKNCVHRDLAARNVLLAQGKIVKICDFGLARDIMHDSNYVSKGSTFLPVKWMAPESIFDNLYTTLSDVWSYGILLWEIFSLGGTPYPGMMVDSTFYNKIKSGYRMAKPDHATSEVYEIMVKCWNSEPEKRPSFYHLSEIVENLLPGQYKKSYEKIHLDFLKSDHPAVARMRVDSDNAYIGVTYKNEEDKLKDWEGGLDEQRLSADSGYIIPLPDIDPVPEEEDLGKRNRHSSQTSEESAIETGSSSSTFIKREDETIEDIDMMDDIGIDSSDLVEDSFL
Summary of the method: as §1

[1] = Caco-2 permeability assay; assay type: in vitro ADME; conditions: human
Method: Exemplary compounds were tested for cell permeability in Caco-2, MDCKII-MDR1 and MDCKII-BCRP cell lines with efflux transporter engagement inferred from the efflux ratios determined. Procedures and results are described below. […] This feature of certain compounds is in part due to efflux transporter engagement. See, for instance, exemplary such compounds included in data tables below.
The transport buffer in the study was HBSS with 10.0 mM HEPES at pH 7.40±0.05. Test compound was tested at 2.00 μM bi-directionally in duplicate. Digoxin was tested at 10.0 μM bi-directionally in duplicate, while nadolol and metoprolol were tested at 2.00 μM in A to B direction in duplicate. Final DMSO concentration was adjusted to less than 1%. The plate was incubated for 2 hours in CO2 incubator at 37±1° C., with 5% CO2 at saturated humidity without shaking. And all samples after mixed with acetonitrile containing internal standard were centrifuged at 3200×g for 10 min. For nadolol and metoprolol, 200 μL supernatant solution was diluted with 600 μL ultra-pure water for LC-MS/MS analysis. For digoxin and test compounds, 200 μL supernatant solution was diluted with 200 μL ultra-pure water for LC-MS/MS analysis. Concentrations of test and control compounds in starting solution, donor solution, and receiver solution were quantified by LC-MS/MS methodologies, using peak area ratio of analyte/internal standard.
After transport assay, lucifer yellow rejection assay was applied to determine the Caco-2 cell monolayer integrity.
[…] And permeation of lucifer yellow through the monolayer was measured to evaluate the cellular integrity.
The apparent permeability coefficient Papp (cm/s) was calculated using the equation: Papp=(dCr/dt)×Vr/(A×C0), where dCr/dt is the cumulative concentration of compound in the receiver chamber as a function of time (μM/s); Vr is the solution volume in the receiver chamber (0.075 mL on the apical side, 0.25 mL on the basolateral side); A is the surface area for the transport, i.e. 0.0804 cm^2 for the area of the monolayer; C0 is the initial concentration in the donor chamber (μM).
The efflux ratio was calculated using the equation: Efflux Ratio=Papp (BA)/Papp(AB).
Percent recovery was calculated using the equation: % Solution Recovery=100×[(Vr×Cr)+(Vd×Cd)]/(Vd×C0), where Vd is the volume in the donor chambers (0.075 mL on the apical side, 0.25 mL on the basolateral side); Cd and Cr are the final concentrations of transport compound in donor and receiver chambers, respectively.

[2] = molecular target: T3, KIT-NanoLuc fusion in HEK293 cells (Homo sapiens, UniProt P10721); assay: NanoBRET cellular target engagement assay, KIT; assay type: cell-based
T3 construct: expressed in transfected cells; host or cells: HEK293, transient transfection
T3 sequence (P10721 26-976): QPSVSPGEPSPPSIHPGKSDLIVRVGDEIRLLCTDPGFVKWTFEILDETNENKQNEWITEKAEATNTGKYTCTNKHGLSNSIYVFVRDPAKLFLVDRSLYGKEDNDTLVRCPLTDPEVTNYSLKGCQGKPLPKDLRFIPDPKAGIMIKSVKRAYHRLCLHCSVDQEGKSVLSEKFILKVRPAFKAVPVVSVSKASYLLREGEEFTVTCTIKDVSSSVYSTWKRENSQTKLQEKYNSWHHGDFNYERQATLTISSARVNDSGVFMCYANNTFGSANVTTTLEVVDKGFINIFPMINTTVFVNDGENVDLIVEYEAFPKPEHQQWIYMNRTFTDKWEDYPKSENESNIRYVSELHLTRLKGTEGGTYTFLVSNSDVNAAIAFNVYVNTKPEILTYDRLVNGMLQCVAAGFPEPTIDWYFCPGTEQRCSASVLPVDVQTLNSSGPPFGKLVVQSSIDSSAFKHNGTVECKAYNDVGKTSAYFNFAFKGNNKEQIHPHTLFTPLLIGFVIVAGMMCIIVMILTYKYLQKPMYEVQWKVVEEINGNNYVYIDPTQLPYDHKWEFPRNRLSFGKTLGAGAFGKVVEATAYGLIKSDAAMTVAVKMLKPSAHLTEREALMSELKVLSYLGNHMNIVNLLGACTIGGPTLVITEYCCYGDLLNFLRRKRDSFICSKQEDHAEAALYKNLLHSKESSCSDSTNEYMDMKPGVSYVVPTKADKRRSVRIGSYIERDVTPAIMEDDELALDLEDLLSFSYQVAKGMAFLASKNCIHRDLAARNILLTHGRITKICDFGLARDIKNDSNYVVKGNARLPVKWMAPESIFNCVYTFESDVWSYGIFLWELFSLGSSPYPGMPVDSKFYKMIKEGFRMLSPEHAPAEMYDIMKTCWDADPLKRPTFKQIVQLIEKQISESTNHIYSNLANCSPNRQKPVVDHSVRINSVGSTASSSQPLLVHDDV
Method: (§2) Exemplary compounds were tested for their ability to inhibit target engagement of KIT or CSF-1R kinases through competitive displacement of a Nano-Luc luciferase kinase fusion in HEK293 cells.
(§3) The NanoBRET target engagement assay employs an energy transfer technique designed to measure molecular proximity in living cells. The assay measures the apparent affinity of test compounds by competitive displacement of the NanoBRET tracer, reversibly bound to a NanoLuc luciferase-kinase fusion construct in cells. The intracellular binding affinity and selectivity are physiologically relevant and fundamental to the pharmacological mechanism of the compounds. While biochemical and biophysical assays identify the kinase inhibitors in vitro, the NanoBRET target engagement assay serves to determine the direct interaction of the compounds binding to target kinases in cells.
(§4) HEK293 cells transiently expressing NanoLuc-DDR1 fusion vector were seeded into 384-well plates and treated with the Tracer K-4 and compound for 1 hour. The BRET signal was measured on an EnVision 2104 multilabel microplate reader. NanoBRET Target Engagement Assay in HEK293 cells transiently transfected with KIT and CSF1R-NanoLuc Fusion Vector. HEK293 cells were transfected with […] KIT or CSF1R-NanoLuc Fusion Vector and […] carrier DNA. The transfected cells were treated with test compounds (starting at 10 μM, 10-dose with 3-fold dilution) and reference compound (desatinib) (starting at 1 μM, 10-dose with 3-fold dilution). Percent inhibition due to compound activity was calculated to determine IC50.

[3] = molecular target: T4, CSF1R-NanoLuc fusion in HEK293 cells (Homo sapiens, UniProt P07333); assay: NanoBRET cellular target engagement assay, CSF-1R; assay type: cell-based
T4 construct: expressed in transfected cells; host or cells: HEK293, transient transfection
T4 sequence (P07333 20-972): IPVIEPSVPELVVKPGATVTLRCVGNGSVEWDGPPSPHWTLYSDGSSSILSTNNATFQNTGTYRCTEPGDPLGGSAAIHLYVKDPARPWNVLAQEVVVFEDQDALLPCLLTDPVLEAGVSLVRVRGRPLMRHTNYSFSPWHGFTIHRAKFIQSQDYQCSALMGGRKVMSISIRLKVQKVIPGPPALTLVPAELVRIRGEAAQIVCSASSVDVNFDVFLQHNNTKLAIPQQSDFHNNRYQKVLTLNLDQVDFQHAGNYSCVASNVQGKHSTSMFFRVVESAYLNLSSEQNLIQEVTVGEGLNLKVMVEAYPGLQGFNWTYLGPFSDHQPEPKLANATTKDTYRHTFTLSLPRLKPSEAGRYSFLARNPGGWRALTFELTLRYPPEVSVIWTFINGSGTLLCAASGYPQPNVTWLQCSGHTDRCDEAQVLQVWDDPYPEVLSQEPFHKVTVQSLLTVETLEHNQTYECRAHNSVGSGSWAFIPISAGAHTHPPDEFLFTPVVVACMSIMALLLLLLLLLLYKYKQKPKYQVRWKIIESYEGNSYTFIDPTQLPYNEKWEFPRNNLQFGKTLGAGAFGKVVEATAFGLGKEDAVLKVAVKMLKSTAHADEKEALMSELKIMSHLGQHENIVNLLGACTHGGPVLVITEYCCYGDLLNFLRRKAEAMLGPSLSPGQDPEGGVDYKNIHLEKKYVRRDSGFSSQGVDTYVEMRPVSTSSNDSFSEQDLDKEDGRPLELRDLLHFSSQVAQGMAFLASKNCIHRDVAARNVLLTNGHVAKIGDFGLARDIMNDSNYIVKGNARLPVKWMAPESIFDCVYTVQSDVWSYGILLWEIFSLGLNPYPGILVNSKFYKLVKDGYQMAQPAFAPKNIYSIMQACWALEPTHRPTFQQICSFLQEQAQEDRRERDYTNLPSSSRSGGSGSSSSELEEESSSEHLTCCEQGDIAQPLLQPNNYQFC
Method: as §2, §3, §4

T1 sequence (P07333 20-972): as above

Structure (SMILES): COc1ccn2c(C(=O)Nc3cc(-c4noc(CC(O)C(F)F)n4)ccc3C)cnc2c1 (single isomer, unassigned) [Compound I-76]
IC50 (CSF-1R): ≤ 50 nM | IC50 (PDGFRα): 50 to 500 nM

Structure (SMILES): Cc1ccc(-c2noc([C@H]3C[C@@H]3F)n2)cc1NC(=O)c1cnc2cc(COCC(C)(C)O)ccn12 [Compound I-71, N-[5-[5-[(1R,2S)-2-fluorocyclopropyl]-1,2,4-oxadiazol-3-yl]-2-methyl-phenyl]-7-[(2-hydroxy-2-methyl-propoxy)methyl]imidazo[1,2-a]pyridine-3-carboxamide]
IC50 (CSF-1R): ≤ 50 nM | IC50 (PDGFRα): 5000 to 30000 nM | efflux ratio at 2 h, 2 μM ([1]; Caco-2, pH 7.4): 6.78 | Papp A→B at 2 h, 2 μM ([1]; pH 7.4, Caco-2, apical to basolateral): 6.65 ×10⁻⁶ cm/s | IC50 [2]: ≤ 100 nM | IC50 [3]: > 10000 nM

Structure (SMILES): COCCOCc1ccn2c(C(=O)Nc3cc(-c4noc([C@H]5C[C@@H]5F)n4)ccc3C)cnc2c1 [Compound I-84]
IC50 (CSF-1R): ≤ 50 nM | IC50 (PDGFRα): 500 to 5000 nM

Structure (SMILES): Cc1ccc(-c2noc([C@H]3C[C@@H]3F)n2)cc1NC(=O)c1cnc2cc(OC(F)(F)F)ccn12 [Compound I-87]
IC50 (CSF-1R): 50 to 500 nM | IC50 (PDGFRα): 5000 to 30000 nM

Structure (SMILES): Cc1ccc(-c2noc([C@H]3C[C@@H]3F)n2)cc1NC(=O)c1cnc2cc(OC(C)C)ccn12 [Compound I-88]
IC50 (CSF-1R): ≤ 50 nM | IC50 (PDGFRα): 500 to 5000 nM | IC50 [2]: ≤ 100 nM | IC50 [3]: > 10000 nM

Structure (SMILES): COc1ccn2c(C(=O)Nc3cc(-c4noc(CC5CC(F)(F)C5)n4)ccc3C)cnc2c1 [Compound I-91]
IC50 (CSF-1R): 50 to 500 nM | IC50 (PDGFRα): 50 to 500 nM

Structure (SMILES): CCOc1ccn2c(C(=O)Nc3cc(-c4noc([C@H]5C[C@@H]5F)n4)ccc3C)cnc2c1 [Compound I-93]
IC50 (CSF-1R): ≤ 50 nM | IC50 (PDGFRα): 50 to 500 nM

Structure (SMILES): COc1ccn2c(C(=O)Nc3cc(-c4noc(C[C@H](C)O)n4)ccc3C)cnc2c1 [Compound I-94]
IC50 (CSF-1R): ≤ 50 nM | IC50 (PDGFRα): 50 to 500 nM

Structure (SMILES): COc1ccn2c(C(=O)Nc3cc(-c4noc(C5CC(F)(F)C5)n4)ccc3C)cnc2c1 [Compound I-96]
IC50 (CSF-1R): ≤ 50 nM | IC50 (PDGFRα): 50 to 500 nM

Structure (SMILES): Cc1ccc(-c2noc([C@H]3C[C@@H]3F)n2)cc1NC(=O)c1cnn2ccccc12 [Compound I-109]
IC50 (CSF-1R): 50 to 500 nM | IC50 (PDGFRα): 500 to 5000 nM

Structure (SMILES): Cc1ccc(-c2noc(CC(O)C(F)F)n2)cc1NC(=O)c1cnc2ccccn12 (stereo not shown) [Compound I-114]
IC50 (CSF-1R): 50 to 500 nM | IC50 (PDGFRα): 5000 to 30000 nM | IC50 [2]: ≤ 100 nM | IC50 [3]: > 10000 nM

Structure (SMILES): COc1ccc2ncc(C(=O)Nc3cc(-c4noc(C[C@@H](C)O)n4)ccc3C)n2c1 [Compound I-119]
IC50 (CSF-1R): 500 to 5000 nM | IC50 (PDGFRα): 500 to 5000 nM

Structure (SMILES): Cc1ccc(-c2noc(CC(O)C(F)F)n2)cc1NC(=O)c1cnc2ccccn12 (stereo not shown) [Compound I-122]
IC50 (CSF-1R): 50 to 500 nM | IC50 (PDGFRα): 500 to 5000 nM

Structure (SMILES): COC(=O)N1CC(c2nc(-c3ccc(C(F)F)c(NC(=O)c4cnc5ccccn45)c3)no2)C1 [Compound I-225]
IC50 (CSF-1R): 500 to 5000 nM | IC50 (PDGFRα): 5000 to 30000 nM

Structure (SMILES): Cc1ccc(-c2noc([C@H]3C[C@@H]3F)n2)cc1NC(=O)c1cnc2ccc(F)cn12 [Compound I-288]
IC50 (CSF-1R): 50 to 500 nM | IC50 (PDGFRα): 500 to 5000 nM

Structure (SMILES): Cc1ccc(-c2noc(CCO)n2)cc1NC(=O)c1cnc2ccccn12 [Compound I-306]
IC50 (CSF-1R): 500 to 5000 nM | IC50 (PDGFRα): 500 to 5000 nM

Structure (SMILES): Cc1ccc(-c2noc(CC(C)(C)O)n2)cc1NC(=O)c1cnc2ccccn12 [Compound I-336]
IC50 (CSF-1R): 50 to 500 nM | IC50 (PDGFRα): 50 to 500 nM

Structure (SMILES): COC(=O)N1CC(c2nc(-c3ccc(Cl)c(NC(=O)c4cnc5ccccn45)c3)no2)C1 [Compound I-339]
IC50 (CSF-1R): 500 to 5000 nM | IC50 (PDGFRα): 500 to 5000 nM

IC50 (CSF-1R): 5000 to 30000 nM | IC50 (PDGFRα): 5000 to 30000 nM
Structure (SMILES): Cc1ccc(-c2noc(C3CC(OCCF)C3)n2)cc1NC(=O)c1cnc2ccccn12 (stereo not shown) [Compound I-369]
